Data published in patent US6562839B1, “6-substituted heteroquinolinecarboxylic acid derivatives and addition salts thereof and processes for the preparation of both” (Kyorin Pharmaceutical Co., Ltd., priority 1999, dated 2003).
Counter-ions that a name gives are not always drawn.

System: not given
Assay: not given
Conditions: not given

For O=C(Nc1cccc(C(=O)O)c1)OCc1cn(-c2cc3cc(C(=O)O)c(=O)[nH]c3cc2Cl)cn1 [Example 43, 6-((((3-Carboxyphenyl)carbamoyloxy)methyl)imidazole-1-yl)-7-chloro-1,2-dihydro-2-oxoquinoline-3-carboxylic acid], the melting point was 263 to 265 °C (dec.).

Compared with O=C(NCc1ccccc1)OCc1cn(-c2cc3cc(C(=O)O)c(=O)[nH]c3cc2C(F)(F)F)cn1 [Example 32], O=C(Nc1ccccc1Br)OCc1cn(-c2cc3cc(C(=O)O)c(=O)[nH]c3cc2C(F)(F)F)cn1 [Example 25, 6-(4-(((2-Bromophenyl)carbamoyloxy)methyl)imidazole-1-yl)-1,2-dihydro-2-oxo-7-trifluoromethylquinoline-3-carboxylic acid] is lower in melting point: 169 to 171 °C for the first, 145 to 147 °C for the second.

First: O=C(Nc1ccc(C(=O)O)cc1)OCc1cn(-c2cc3cc(C(=O)O)c(=O)[nH]c3cc2C(F)(F)F)cn1 [Example 19, 6-(4-(((4-Carboxyphenyl)carbamoyloxy)methyl)imidazole-1-yl)-1,2-dihydro-2-oxo-7-trifluoromethylquinoline-3-carboxylic acid]
Second: O=C(Nc1ccc(C(=O)O)cc1)OCc1cn(-c2cc3cc(C(=O)O)c(=O)[nH]c3cc2Cl)cn1 [Example 44, 6-((((4-Carboxyphenyl)carbamoyloxy)methyl)imidazole-1-yl)-7-chloro-1,2-dihydro-2-oxoquinoline-3-carboxylic acid]
The melting point of the first is lower: 218 to 220 °C for the first, 249 to 251 °C for the second.

First: O=C(Nc1ccccc1)OCc1cn(-c2cc3cc(C(=O)O)c(=O)[nH]c3cc2Cl)cn1 [Example 41, 7-Chloro-1,2-dihydro-2-oxo-6-(4-((phenylcarbamoyloxy)methyl)imidazole-1-yl)quinoline-3-carboxylic acid]
Second: O=C(Nc1ccccc1F)OCc1cn(-c2cc3cc(C(=O)O)c(=O)[nH]c3cc2[N+](=O)[O-])cn1 (as salt: HCl) [Example 6]
The melting point of the first is lower: 180 to 182 °C for the first, 226 to 228 °C for the second.

Target: AMPA receptor
Assay: Binding experiment against AMPA receptor ([3H]-AMPA binding, crude synaptic membranes from cerebral cortex)
Conditions: rat cerebral cortex crude synaptic membranes; [3H]-AMPA 5 nmol/L, potassium thiocyanate 100 mmol/L, 30 minutes at 0° C.; IC50 converted to Ki
Experimental: Binding Experiment Against AMPA Receptor
To a crude synaptic membranes preparation prepared from cerebral cortex in rat were added [^3H]-AMPA (final concentration: 5 nmol/L) that binds selectively to AMPA receptors, potassium thiocyanate (final concentration: 100 mmol/L) and testing compound, and the mixture was incubated for 30 minutes at 0° C. After the reaction was stopped by suction filtration, the radioactivity on filter was measured with liquid scintillation counter. The specific binding level of [^3H]-AMPA was determined by subtracting the non-specific binding level in the presence of glutamic acid (0.1 mmol/L) from total binding level. The [^3H]-AMPA binding in the absence of testing compound was put on 100, and the concentration of compound to decrease by 50% (IC50 value) was determined, which was converted to Ki value to calculate the binding capacity of each compound to AMPA receptor (Eur. J. Pharmacol., 1993, 246, 195-204).

In order of rising Ki:
1. O=C(Nc1ccccc1F)OCc1cn(-c2cc3cc(C(=O)O)c(=O)[nH]c3cc2[N+](=O)[O-])cn1 [Example 6]  8.22 nM
2. O=C(Nc1ccc(C(=O)O)cc1)OCc1cn(-c2cc3cc(C(=O)O)c(=O)[nH]c3cc2[N+](=O)[O-])cn1 [Example 16, 6-(4-(((4-Carboxyphenyl)carbamoyloxy)methyl)imidazole-1-yl)-1,2-dihydro-7-nitro-2-oxoquinoline-3-carboxylic acid]  16.5 nM
3. O=C(Nc1cccc(C(=O)O)c1)OCc1cn(-c2cc3cc(C(=O)O)c(=O)[nH]c3cc2[N+](=O)[O-])cn1 [Example 15, 6-(4-(((3-Carboxyphenyl)carbamoyloxy)methyl)imidazole-1-yl)-1,2-dihydro-7-nitro-2-oxoquinoline-3-carboxylic acid]  17.8 nM
4. CCOC(=O)c1ccc(NC(=O)OCc2cn(-c3cc4cc(C(=O)OCC)c(=O)[nH]c4cc3C(F)(F)F)cn2)cc1 [Example 18, Ethyl 1,2-dihydro-6-(4-(((4-ethoxycarbonylphenyl)carbamoyloxy)methyl)imidazole-1-yl)-2-oxo-7-trifluoromethylquinoline-3-carboxylate]  18.4 nM
5. O=C(Nc1ccccc1)OCc1cn(-c2cc3cc(C(=O)O)c(=O)[nH]c3cc2[N+](=O)[O-])cn1 [Example 2, 1,2-Dihydro-7-nitro-2-oxo-6-(4-((phenylcarbamoyloxy)methyl)imidazole-1-yl)quinoline-3-carboxylic acid]  22.4 nM
